Read-outs that look alike come from different tables or passages of the source.
Target: human DP2 (Homo sapiens (Human), UniProt Q9Y5Y4)
Assay: DP-2 Binding Inhibition Assay (3H-PGD2 binding to membranes of K562 cells expressing DP2)
Conditions: inhibition of 3H-PGD2 binding
Description: DP-2 Binding Inhibition Assay
The coding sequence of human DP2 was introduced into the human Leukemic cell line K562 by electroporation and stable clones expressing DP2 were obtained by limiting dilution followed by cell surface staining with a rat monoclonal antibody specific for human DP2. Membranes were prepared from one of these DP2 expressing clones and used to determine the ability of compounds of the present invention to inhibit binding of prostaglandin D2 (PGD2) to its receptor DP2 in the presence of one or more of the following serum protein concentrations, 0.1% BSA, 1% HSA or 4% HSA, by the following procedure. Membranes (1.25 μg/well for 0.1% BSA and 6 μg/well for 1% or 4% HSA) were mixed with ^3H-labeled PGD2 and various concentrations of test compounds in 150 μL of binding buffer (50 mM Tris-HCl, pH 7.4, 40 mM MgCl2, 0.1% bovine serum albumin, 0.1% NaN3) in 96-well U-bottom polypropylene plates. After incubation for 60 minutes at room temperature, the assay was transferred to a filtration plate (#MAFB; Millipore Corporation, Bedford, Mass.), and washed three times with binding buffer. Radioactivity was measured by a scintillation counter (TopCount; PerkinElmer Life Sciences, Boston, Mass.). Nonspecific binding was determined by incubations in the presence of 1 μM unlabeled PGD2 or 5 μM of a known DP2 antagonist. EC50 values for inhibition of binding were determined for each compound tested from the inflexion point of a standard 4-parameter logistical curve fitted to the values obtained.

[1] = read-out: EC50 (nM) 4% HSA, 4% HSA
[2] = read-out: EC50 (Nm) 1% HSA, 1% HSA

Sequence of human DP2 (Q9Y5Y4 whole entry): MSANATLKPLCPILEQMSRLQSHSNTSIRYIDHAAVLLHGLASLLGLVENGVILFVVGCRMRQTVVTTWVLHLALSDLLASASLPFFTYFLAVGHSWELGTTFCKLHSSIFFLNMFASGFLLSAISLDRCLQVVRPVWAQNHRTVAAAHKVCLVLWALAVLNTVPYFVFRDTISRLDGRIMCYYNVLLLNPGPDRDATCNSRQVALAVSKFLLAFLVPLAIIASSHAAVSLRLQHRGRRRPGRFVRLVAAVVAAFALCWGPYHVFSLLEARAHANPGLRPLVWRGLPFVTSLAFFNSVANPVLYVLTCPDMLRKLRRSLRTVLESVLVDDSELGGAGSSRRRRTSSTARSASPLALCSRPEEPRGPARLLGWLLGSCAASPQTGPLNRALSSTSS

Compound	EC50 [1]	EC50 [2]
O=C(NCCSc1ccc(Cl)cc1)c1ccc(Oc2cc3c(cc2Cl)C(C(=O)O)CCO3)cc1 (stereo not shown) [Example 113, Sodium 6-chloro-7-(4-(2-(4-chlorophenylthio)ethylcarbamoyl)phenoxy)chroman-4-carboxylate]	2380 nM	
O=C(NCCCc1ccc(Cl)cc1)c1ccc(Oc2cc3c(cc2Cl)C(C(=O)O)CCO3)cc1 (stereo not shown) [Example 77, Sodium 6-chloro-7-(4-(3-(4-chlorophenyl)propylcarbamoyl)phenoxy)chroman-4-carboxylate]	356 nM	
N#Cc1cc2c(cc1Oc1ccc(C(=O)NCCc3ccc(-c4ccccc4)cc3)cc1)OCCC2C(=O)O (stereo not shown) [Example 58, 7-(4-(2-(Biphenyl-4-yl)ethylcarbamoyl)phenoxy)-6-cyanochroman-4-carboxylic acid]	434 nM	
Cc1ccccc1CCNC(=O)c1ccc(Oc2cc3c(cc2Cl)C(C(=O)O)CCO3)cc1 (stereo not shown) [Example 20, Sodium 6-chloro-7-(4-(2-methylphenethylcarbamoyl)phenoxy)chroman-4-carboxylate]	759 nM	
CCc1ccccc1CCNC(=O)c1ccc(Oc2cc3c(cc2Cl)C(C(=O)O)CCO3)cc1 (stereo not shown) [Example 196, sodium 6-chloro-7-(4-(2-ethylphenethylcarbamoyl)phenoxy)chroman-4-carboxylate]	269 nM	
Cc1ccc(CCNC(=O)c2ccc(Oc3cc4c(cc3Cl)C(C(=O)O)CCO4)cc2)c(C)c1 (stereo not shown) [Example 21, Sodium 6-chloro-7-(4-(2,4-dimethylphenethylcarbamoyl)phenoxy)chroman-4-carboxylate]	169 nM	
Cc1cccc(-c2cccc(NC(=O)c3ccc(Oc4cc5c(cc4C#N)C(C(=O)O)CCO5)cc3)c2)c1 (stereo not shown) [Example 108, 6-Cyano-7-(4-(3′-methylbiphenyl-3-ylcarbamoyl)phenoxy)chroman-4-carboxylic acid]	69.3 nM	
O=C(NCCc1ccc(Cl)cc1)c1ccc(Oc2cc3c(cc2Cl)C(C(=O)O)CCO3)cc1 (stereo not shown) [Example 10, 6-Chloro-7-(4-(4-chlorophenethylcarbamoyl)phenoxy)chroman-4-carboxylic acid]	225 nM	13.9 nM
O=C(NC1CCC(c2cccc(C(F)(F)F)c2)C1)c1ccc(Oc2cc3c(cc2Cl)C(C(=O)O)CCO3)cc1 (stereo not shown) [Example 170, Sodium 6-chloro-7-(4-(3-(3-(trifluoromethyl)phenyl)cyclopentylcarbamoyl)phenoxy)chroman-4-carboxylate]	298 nM	
O=C(NC1CCC(c2ccc(Cl)cc2)C1)c1ccc(Oc2cc3c(cc2Cl)C(C(=O)O)CCO3)cc1 (stereo not shown) [Example 168, Sodium 6-chloro-7-(4-(3-(4-chlorophenyl)cyclopentylcarbamoyl)phenoxy)chroman-4-carboxylate]	302 nM	
O=C(NC1CCC(c2ccc(Cl)cc2)CC1)c1ccc(Oc2cc3c(cc2Cl)C(C(=O)O)CCO3)cc1 (stereo not shown) [Example 176, Sodium 6-chloro-7-(4-(4-(4-chlorophenyl)cyclohexylcarbamoyl)phenoxy)chroman-4-carboxylate]	339 nM	
O=C(NCCc1ccc(C2CC2)cc1Cl)c1ccc(Oc2cc3c(cc2Cl)C(C(=O)O)CCO3)cc1 (stereo not shown) [Example 30, Sodium 6-chloro-7-(4-(2-chloro-4-cyclopropylphenethylcarbamoyl)phenoxy)chroman-4-carboxylate]	301 nM	
O=C(NCCc1ccc(Cl)cc1)c1ccc(Oc2c(Cl)cc3c(c2Br)OCCC3C(=O)O)cc1 (stereo not shown) [Example 38, Sodium 8-bromo-6-chloro-7-(4-(4-chlorophenethylcarbamoyl)phenoxy)chroman-4-carboxylate]	366 nM	
O=C(NCCc1ccc(Cl)cc1)c1ccc(Oc2cc3c(cc2C2CC2)C(C(=O)O)CCO3)cc1 (stereo not shown) [Example 41, Sodium 7-(4-(4-chlorophenethylcarbamoyl)phenoxy)-6-cyclopropylchroman-4-carboxylate]	150 nM	
COc1ccc(CCNC(=O)c2ccc(Oc3cc4c(cc3Cl)C(C(=O)O)CCO4)cc2)c(Cl)c1 (stereo not shown) [Example 100, Sodium 6-chloro-7-(4-(2-chloro-4-methoxyphenethylcarbamoyl)phenoxy)chroman-4-carboxylate]	619 nM	
COc1cc(Cl)c(CCNC(=O)c2ccc(Oc3cc4c(cc3Cl)C(C(=O)O)CCO4)cc2)c(Cl)c1 (stereo not shown) [Example 224, 6-chloro-7-(4-(2,6-dichloro-4-methoxyphenethylcarbamoyl)phenoxy)chroman-4-carboxylic acid]	373 nM	
COc1cccc(CCNC(=O)c2ccc(Oc3cc4c(cc3C#N)C(C(=O)O)CCO4)cc2)c1 (stereo not shown) [Example 48, 7-(4-((3-Methoxyphenethyl)carbamoyl)phenoxy)-6-cyano-3,4-dihydro-2H-chromene-4-carboxylic acid]		30.7 nM

Compound	EC50 [1]	EC50 [2]
COc1ccc2c(c1)CCC(NC(=O)c1ccc(Oc3cc4c(cc3C#N)C(C(=O)O)CCO4)cc1)C2 (stereo not shown) [Example 53, 6-Cyano-7-(4-(6-methoxy-1,2,3,4-tetrahydronaphthalen-2-ylcarbamoyl)phenoxy)chroman-4-carboxylic acid]		60.5 nM
O=C(NCCc1ccccc1F)c1ccc(Oc2cc3c(cc2Cl)C(C(=O)O)CCO3)cc1 (stereo not shown) [Example 153, Sodium 6-chloro-7-(4-(2-fluorophenethylcarbamoyl)phenoxy)chroman-4-carboxylate]	521 nM	
O=C(NCCc1ccc(C(F)(F)F)cc1Cl)c1ccc(Oc2cc3c(cc2Cl)C(C(=O)O)CCO3)cc1 (stereo not shown) [Example 98, Sodium 6-chloro-7-(4-(2-chloro-4-(trifluoromethyl)phenethylcarbamoyl)phenoxy)chroman-4-carboxylate]	193 nM	
O=C(NCCc1ccccc1-c1ccc(Cl)cc1)c1ccc(Oc2cc3c(cc2Cl)C(C(=O)O)CCO3)cc1 (stereo not shown) [Example 94, Sodium 6-chloro-7-(4-(2-(4′-chlorobiphenyl-2-yl)ethylcarbamoyl)phenoxy)chroman-4-carboxylate]	287 nM	
O=C(NCCc1ccc(Cl)cc1F)c1ccc(Oc2cc3c(cc2Cl)C(C(=O)O)CCO3)cc1 (stereo not shown) [Example 230, 6-chloro-7-(4-(4-chloro-2-fluorophenethylcarbamoyl)phenoxy)chroman-4-carboxylic acid]	243 nM	
CSc1ccc(C2CCC(NC(=O)c3ccc(Oc4cc5c(cc4Cl)C(C(=O)O)CCO5)cc3)C2)cc1 (stereo not shown) [Example 175, Sodium 6-chloro-7-(4-(3-(4-(methylthio)phenyl)cyclopentylcarbamoyl)phenoxy)chroman-4-carboxylate]	572 nM	
COc1ccc(C2CCC(NC(=O)c3ccc(Oc4cc5c(cc4Cl)C(C(=O)O)CCO5)cc3)C2)cc1 (stereo not shown) [Example 174, Sodium 6-chloro-7-(4-(3-(4-methoxyphenyl)cyclopentylcarbamoyl)phenoxy)chroman-4-carboxylate]	723 nM	
O=C(NCCc1ccc(C(F)(F)F)cc1C(F)(F)F)c1ccc(Oc2cc3c(cc2Cl)C(C(=O)O)CCO3)cc1 (stereo not shown) [Example 221, 7-(4-(2,4-bis(trifluoromethyl)phenethylcarbamoyl)phenoxy)-6-chlorochroman-4-carboxylic acid]	45 nM	
Cc1nccc(-c2cccc(NC(=O)c3ccc(Oc4cc5c(cc4C#N)C(C(=O)O)CCO5)cc3)c2)n1 (stereo not shown) [Example 70, 6-Cyano-7-(4-(3-(2-methylpyrimidin-4-yl)phenylcarbamoyl)phenoxy)chroman-4-carboxylic acid]	995 nM	
N#Cc1cc2c(cc1Oc1ccc(C(=O)NC3CCc4ccccc4C3)cc1)OCCC2C(=O)O (stereo not shown) [Example 72, 6-Cyano-7-(4-(1,2,3,4-tetrahydronaphthalen-2-ylcarbamoyl)phenoxy)chroman-4-carboxylic acid]		36.4 nM
N#Cc1cc2c(cc1Oc1ccc(C(=O)NCC3(c4ccc(Cl)cc4)CC3)cc1)OCCC2C(=O)O (stereo not shown) [Example 219, 7-(4-((1-(4-chlorophenyl)cyclopropyl)methylcarbamoyl)phenoxy)-6-cyanochroman-4-carboxylic acid]		1040 nM
O=C(NCCCc1ccccc1)c1ccc(Oc2cc3c(cc2Cl)C(C(=O)O)CCO3)cc1 (stereo not shown) [Example 78, Sodium 6-chloro-7-(4-(3-phenylpropylcarbamoyl)phenoxy)chroman-4-carboxylate]	681 nM	
O=C(NC1CCCC(c2ccc(Cl)cc2)C1)c1ccc(Oc2cc3c(cc2Cl)C(C(=O)O)CCO3)cc1 (stereo not shown) [Example 164, Sodium 6-chloro-7-(4-(3-(4-chlorophenyl)cyclohexylcarbamoyl)phenoxy)chroman-4-carboxylate]	183 nM	
Cc1cccc(C2CCC(NC(=O)c3ccc(Oc4cc5c(cc4Cl)C(C(=O)O)CCO5)cc3)C2)c1 (stereo not shown) [Example 169, Sodium 6-chloro-7-(4-(3-(3-methylphenyl)cyclopentylcarbamoyl)phenoxy)chroman-4-carboxylate]	204 nM	
COc1cc(Br)ccc1CCNC(=O)c1ccc(Oc2cc3c(cc2Cl)C(C(=O)O)CCO3)cc1 (stereo not shown) [Example 35, Sodium 7-(4-(4-bromo-2-methoxyphenethylcarbamoyl)phenoxy)-6-chlorochroman-4-carboxylate]	64.3 nM	
COc1cc(OC)c(CCNC(=O)c2ccc(Oc3cc4c(cc3Cl)C(C(=O)O)CCO4)cc2)c(OC)c1 (stereo not shown) [Example 222, 6-chloro-7-(4-(2,4,6-trimethoxyphenethylcarbamoyl)phenoxy)chroman-4-carboxylic acid]	118 nM	

— patent publication US9556139B2, “6-substituted phenoxychroman carboxylic acid derivatives” (Array BioPharma Inc., priority 2008, dated 2017)
